Assay results: US20050004167A1, “Branched chain amino acid-dependent aminotransferase inhibitors and their use in the treatment of neurodegenerative diseases” (WARNER-LAMBERT COMPANY LLC, priority 2001, published 2005)
Values joined by “and” are separate entries in the source; they are usually repeats but may differ in a detail not shown here. Equal entries are not always repeated.

Legend:
[1] = target: T1, human Branched Chain Amino Acid Aminotransferase cytosolic form (hBCATc) (Homo sapiens, UniProt P54687); test: In vitro coupled enzyme assay (glutamate dehydrogenase, NADH formation), human BCATc; type: biochemical; settings: recombinant human BCATc, 37° C., 25 mM phosphate buffer pH 7.8; several values in a cell = repeat determinations; read-out: RhBCATc
T1 construct: made in house; host or cells: E. coli BL21(DE3)
T1 sequence (P54687 1-386): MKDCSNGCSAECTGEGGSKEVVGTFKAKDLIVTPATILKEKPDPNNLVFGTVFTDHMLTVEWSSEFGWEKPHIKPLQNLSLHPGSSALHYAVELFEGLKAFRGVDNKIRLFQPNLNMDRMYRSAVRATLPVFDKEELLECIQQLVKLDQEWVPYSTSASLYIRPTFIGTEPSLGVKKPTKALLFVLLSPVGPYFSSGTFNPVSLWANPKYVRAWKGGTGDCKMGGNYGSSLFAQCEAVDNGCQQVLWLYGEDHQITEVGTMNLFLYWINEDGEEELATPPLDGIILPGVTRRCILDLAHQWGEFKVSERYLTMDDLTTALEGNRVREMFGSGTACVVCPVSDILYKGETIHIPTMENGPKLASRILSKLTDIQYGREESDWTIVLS
Procedure, shortened: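 At 37 °C in 25 mM phosphate pH 7.8 with 2 mM DTT, 1.25 μg His-tag-purified E. coli-expressed BCAT transaminated 750 μM L-leucine with 500 μM α-ketoglutarate and 10 μM PLP. Glutamate was coupled via glutamate dehydrogenase (1 mM NAD+, 4 mM ADP) to NADH formation at 340 nm. Compounds were added in DMSO up to 5% v/v.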

[2] = target: T2, rat BCAT cytosolic form (Rattus norvegicus, UniProt P54690); test: In vitro coupled enzyme assay (glutamate dehydrogenase, NADH formation), rat BCATc; type: biochemical; settings: recombinant rat BCATc, 37° C., 25 mM phosphate buffer pH 7.8; several values in a cell = repeat determinations; read-out: RrBCATc
T2 construct: made in house; host or cells: E. coli BL21(DE3)
T2 sequence (P54690 1-411): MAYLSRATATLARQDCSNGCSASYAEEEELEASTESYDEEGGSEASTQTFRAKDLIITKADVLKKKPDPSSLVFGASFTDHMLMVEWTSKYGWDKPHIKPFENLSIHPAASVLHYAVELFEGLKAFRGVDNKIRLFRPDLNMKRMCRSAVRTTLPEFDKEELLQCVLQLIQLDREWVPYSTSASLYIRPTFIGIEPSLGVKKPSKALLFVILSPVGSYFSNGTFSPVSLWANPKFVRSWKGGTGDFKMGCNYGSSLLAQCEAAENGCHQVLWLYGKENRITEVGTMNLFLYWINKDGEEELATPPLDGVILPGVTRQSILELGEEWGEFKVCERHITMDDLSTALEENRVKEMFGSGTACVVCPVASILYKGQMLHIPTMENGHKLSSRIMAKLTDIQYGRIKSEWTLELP
Protocol: In vitro enzyme assay—human Branched Chain Amino Acid Aminotransferase cytosolic form (hBCATc) and mitochondrial form (hBCATm) as well as rat BCAT cytosolic form were assayed at 37° C. in 25 mM phosphate buffer pH 7.8. In addition, 2 mM DTT and 12.5 mM […] were added to the assay mixture. A coupling enzyme assay was used to monitor the production of glutamate. The formation of NADH from NAD+ at […] was followed on a 96-well plate Molecular Devices plate reader.
The following components were used in this coupled assay: 4 mM ADP, 1 mM NAD+, 750 μM L-Leucine, 500 μM α-ketoglutarate, 10 μM pyridoxal phosphate, 1 unit glutamate dehydrogenase, and 1.25 μg of the appropriate BCAT enzyme. Inhibitions by compounds were assayed by adding various concentrations to this coupled assay procedure as a DMSO stock up to a 5% v/v DMSO/buffer ratio.
Enzyme Preparation—humanBCATc and ratBCATc were expressed in BL21(DE3) cells. A growing culture of cells was induced with 1 mM IPTG at room temperature overnight. These cells were harvested by centrifugation at 10,000 g for 20 minutes. The supernatant was discarded, and the cells were stored at −80° C. until needed. The protein was purified by the following method. The cell paste was resuspended in extraction buffer (0.1 M phosphate, pH 8.0, with 0.01 M Tris-HCL and 5 mM TCEP and then lysed on a French Press at 1000 psi. The lysate was centrifuged at 10,000 g for 15 minutes, and the pellet was discarded. The supernatant was loaded onto a Hitrap Chelating column previously charged with 0.1 M NiSO4 and washed with 3 to 4 column volumes of extraction buffer. The column was then washed with 0.01 Tris, pH 7.5, 10% glycerol, 150 mM NaCl, 5 mM TCEP for two column volumes. The column was then further washed with two column volumes of 0.1 M phosphate, pH 6.0, 0.01 M Tris, 10% glycerol and 750 mM NaCl. Finally, the column was washed with two column volumes of the same buffer plus 50 mM imidazole. The BCAT enzyme was then eluted with the same buffer but with 350 mM imidazole. The eluant was then dialyzed overnight against 10 mM phosphate buffer pH 8.0, 10% glycerol, and 5 mM TCEP. The dialyzed protein was then loaded onto a Q-sepharose column and eluted using a salt gradient. Active fractions were collected and further purified on a Superose-12 column to yield pure BCAT protein.

SMILES	IC50 [1]	IC50 [2] [µM]
Cc1ccc2oc(C(=O)NNS(=O)(=O)c3ccccc3OC(F)(F)F)cc2c1 [Example 85, 2-Benzofurancarboxylic acid, 5-methyl-, 2-[[2-(trifluoromethoxy)phenyl]-sulfonyl]hydrazide]	21.2 µM	1.39
Cc1c(C(=O)NNS(=O)(=O)c2ccccc2)oc2ccc(Cl)cc12 [Example 90, 2-Benzofurancarboxylic acid, 5-chloro-3-methyl, 2-(phenylsulfonyl)hydrazide]	> 100 µM	> 100
O=C(NNS(=O)(=O)c1c(F)cccc1F)c1ccc2oc3ccccc3c2c1 [Example 93, 2-Dibenzofurancarboxylic acid, 2-(2,6-difluorophenylsulfonyl)hydrazide]	63.5 µM	5.9
O=C(NNS(=O)(=O)c1cc(C(F)(F)F)ccc1Cl)c1ccc2oc3ccccc3c2c1 [Example 97]	67.5 µM	36.4
O=C(NNS(=O)(=O)c1ccccc1OC(F)(F)F)c1ccc2oc3ccccc3c2c1 [Example 98, 2-Dibenzofurancarboxylic acid, 2-[(2-trifluoromethoxyphenyl)sulfonyl]hydrazide]	2.8 µM	0.65
O=C(NNS(=O)(=O)c1ccc(Br)cc1OC(F)(F)F)c1ccc2oc3ccccc3c2c1 [Example 99, 2-Dibenzofurancarboxylic acid, 2-[(4-bromo-2-trifluoromethoxyphenyl)sulfonyl]-hydrazide]	46.3 µM	35.1
O=C(NNS(=O)(=O)c1ccccc1[N+](=O)[O-])c1ccc2oc3ccccc3c2c1 [Example 100, 2-Dibenzofurancarboxylic acid, 2-[(2-nitrophenyl)sulfonyl]hydrazide]	28.1 µM	4
O=C(O)c1ccc(S(=O)(=O)NNC(=O)c2ccc3oc4ccccc4c3c2)cc1 [Example 101, 2-Dibenzofurancarboxylic acid, 2-[(4-carboxyphenyl)sulfonyl]hydrazide]	48.1 µM	22
COc1cccc2cc(C(=O)NNS(=O)(=O)c3cccc(Cl)c3)oc12 [Example 102, 2-Benzofurancarboxylic acid, 7-methoxy-, 2-[(3-chlorophenyl)sulfonyl]hydrazide]	6 µM	0.37
COc1cccc2cc(C(=O)NNS(=O)(=O)c3cccc(F)c3)oc12 [Example 103, 2-Benzofurancarboxylic acid, 7-methoxy-, 2-[(3-fluorophenyl)sulfonyl]hydrazide]	12 µM	0.85
COc1cccc2cc(C(=O)NNS(=O)(=O)c3cccc(Cl)c3Cl)oc12 [Example 104, 2-Benzofurancarboxylic acid, 7-methoxy-, 2-[(2,3-dichlorophenyl)sulfonyl]-hydrazide]	23 µM	1.4
COc1cccc2cc(C(=O)NNS(=O)(=O)c3ccc(F)c(Cl)c3)oc12 [Example 105, 2-Benzofurancarboxylic acid, 7-methoxy-, 2-[(3-chloro-4-fluorophenyl)sulfonyl]-hydrazide]	54 µM	3.3
COc1ccc(Cl)cc1S(=O)(=O)NNC(=O)c1cc2cccc(OC)c2o1 [Example 106, 2-Benzofurancarboxylic acid, 7-methoxy-, 2-[(5-chloro-2-methoxyphenyl)-sulfonyl]hydrazide]	42 µM	5.6
COc1ccc(Br)cc1S(=O)(=O)NNC(=O)c1cc2cccc(OC)c2o1 [Example 107, 2-Benzofurancarboxylic acid, 7-methoxy-, 2-[(5-bromo-2-methoxyphenyl)-sulfonyl]hydrazide]	41 µM	7.5
CCc1ccc(S(=O)(=O)NNC(=O)c2cc3cccc(OC)c3o2)cc1 [Example 108, 2-Benzofurancarboxylic acid, 7-methoxy-, 2-[(4-ethylphenyl)sulfonyl]hydrazide]	57 µM	5.6
COc1cccc(S(=O)(=O)NNC(=O)c2cc3cccc(OC)c3o2)c1 [Example 109, 2-Benzofurancarboxylic acid, 7-methoxy-, 2-[(3-methoxyphenyl)sulfonyl]-hydrazide]	9.8 µM	0.46
O=C(NNS(=O)(=O)c1cccc(Cl)c1Cl)c1ccc2oc3ccccc3c2c1 [Example 110, 2-Dibenzofurancarboxylic acid, 2-[(2,3-dichlorophenyl)sulfonyl]hydrazide]	11.1 µM	0.72

Results, then the molecule that gave them:

IC50 [1]	IC50 [2] [µM]	SMILES
15.2 µM	0.24	Cc1cccc2cc(C(=O)NNS(=O)(=O)c3ccccc3)oc12 [Example 86, 2-Benzofurancarboxylic acid, 7-methyl-, 2-(phenylsulfonyl)hydrazide]
41.1 µM	1.16	Cc1cccc2oc(C(=O)NNS(=O)(=O)c3ccccc3)cc12 [Example 87, 2-Benzofurancarboxylic acid, 4-methyl-, 2-(phenylsulfonyl)hydrazide]
40 µM	4	Cc1c(C(=O)NNS(=O)(=O)c2ccccc2)oc2ccccc12 [Example 88, 2-Benzofurancarboxylic acid, 3-methyl-, 2-(phenylsulfonyl)hydrazide]
> 100 µM	> 100	Cc1ccc2oc(C(=O)NNS(=O)(=O)c3ccccc3)c(C)c2c1 [Example 89, 2-Benzofurancarboxylic acid, 3,5-dimethyl-, 2-(phenylsulfonyl)hydrazide]
19.6 µM	0.11	Nc1ccc2oc(C(=O)NNS(=O)(=O)c3ccccc3)cc2c1 [Example 91, 2-Benzofurancarboxylic acid, 5-amino-, 2-(phenylsulfonyl)hydrazide]
12.1 µM	1.1	O=C(NNS(=O)(=O)c1ccccc1F)c1ccc2oc3ccccc3c2c1 [Example 92, 2-Dibenzofurancarboxylic acid, 2-[(2-fluorophenyl)sulfonyl]hydrazide]
5.5 µM	0.72	O=C(NNS(=O)(=O)c1ccccc1Br)c1ccc2oc3ccccc3c2c1 [Example 94, 2-Dibenzofurancarboxylic acid, 2-[(2-bromophenyl)sulfonyl]hydrazide]
2.9 µM	0.3	O=C(NNS(=O)(=O)c1cccc(Br)c1)c1ccc2oc3ccccc3c2c1 [Example 95, 2-Dibenzofurancarboxylic acid, 2-[(3-bromophenyl)sulfonyl]hydrazide]
51.6 µM	36.3	Cc1ccc(S(=O)(=O)NNC(=O)c2ccc3oc4ccccc4c3c2)cc1[N+](=O)[O-] [Example 96, 2-Dibenzofurancarboxylic acid, 2-[(4-methyl-3-nitrophenyl)sulfonyl]hydrazide]
0.47 µM and 2.8 µM	0.47	Cc1cccc(S(=O)(=O)NNC(=O)c2ccc3ccccc3c2)c1 [Example 111, 2-Naphthalenecarboxylic acid, 2-[(3-methylphenyl)sulfonyl]hydrazide]
